Tests used:
NCI-H1975 [1] = test: Induction of cell cycle arrest in human NCI-H1975 cells assessed as accumulation at G2/M phase at 0.5 uM after 36 hrs by PI staining based flow cytometry analysis (reference value: 43.1%); type: functional
NCI-H1299 [2] = test: Induction of cell cycle arrest in human NCI-H1299 cells assessed as accumulation at G0/G1 phase at 0.02 uM after 36 hrs by PI staining based flow cytometry analysis (reference value: 70.2%); type: functional
NCI-H1975 [3] = test: Induction of apoptosis in human NCI-H1975 cells assessed as increase in necrotic cells at 0.1 uM after 36 hrs by annexin-V-FITC/PI staining based flow cytometric analysis (reference value: 0.35%); type: functional
NCI-H1299 [4] = test: Antiproliferative activity against human NCI-H1299 cells expressing wild type EGFR assessed as inhibition in cell viability after 72 hrs by CCK8 assay; type: functional, cell-based; conditions: NCI-H1299, 72 h
NCI-H1299 [5] = test: Induction of apoptosis in human NCI-H1299 cells assessed as increase in early apoptotic cells at 0.1 uM after 36 hrs by annexin-V-FITC/PI staining based flow cytometric analysis (reference value: 0.79%); type: functional
NCI-H1299 [6] = test: Induction of apoptosis in human NCI-H1299 cells assessed as increase in viable cells at 0.5 uM after 36 hrs by annexin-V-FITC/PI staining based flow cytometric analysis (reference value: 94.1%); type: functional
NCI-H1299 [7] = test: Induction of cell cycle arrest in human NCI-H1299 cells assessed as accumulation at G2/M phase at 2.5 uM after 36 hrs by PI staining based flow cytometry analysis (reference value: 5.6%); type: functional
NCI-H1975 [8] = test: Induction of apoptosis in human NCI-H1975 cells assessed as increase in necrotic cells at 2.5 uM after 36 hrs by annexin-V-FITC/PI staining based flow cytometric analysis (reference value: 0.35%); type: functional
NCI-H1975 [9] = test: Induction of apoptosis in human NCI-H1975 cells assessed as increase in viable cells at 0.02 uM after 36 hrs by annexin-V-FITC/PI staining based flow cytometric analysis (reference value: 94.6%); type: functional
NCI-H1975 [10] = test: Induction of apoptosis in human NCI-H1975 cells assessed as increase in viable cells at 0.1 uM after 36 hrs by annexin-V-FITC/PI staining based flow cytometric analysis (reference value: 94.6%); type: functional
A549 = test: Antiproliferative activity against human A549 cells expressing wild type EGFR assessed as inhibition in cell viability after 72 hrs by CCK8 assay; type: functional, cell-based; conditions: A549, 72 h
NCI-H1975 [11] = test: Induction of apoptosis in human NCI-H1975 cells assessed as increase in early apoptotic cells at 0.1 uM after 36 hrs by annexin-V-FITC/PI staining based flow cytometric analysis (reference value: 1.24%); type: functional
NCI-H1299 [12] = test: Induction of cell cycle arrest in human NCI-H1299 cells assessed as accumulation at G2/M phase at 0.5 uM after 36 hrs by PI staining based flow cytometry analysis (reference value: 5.6%); type: functional
NCI-H1299 [13] = test: Induction of cell cycle arrest in human NCI-H1299 cells assessed as accumulation at S phase at 0.5 uM after 36 hrs by PI staining based flow cytometry analysis (reference value: 24.8%); type: functional
NCI-H1975 [14] = test: Induction of apoptosis in human NCI-H1975 cells assessed as increase in necrotic cells at 0.5 uM after 36 hrs by annexin-V-FITC/PI staining based flow cytometric analysis (reference value: 0.35%); type: functional
NCI-H1975 [15] = test: Induction of cell cycle arrest in human NCI-H1975 cells assessed as accumulation at G2/M phase at 0.02 uM after 36 hrs by PI staining based flow cytometry analysis (reference value: 43.1%); type: functional
HCC827 = test: Antiproliferative activity against human HCC827 cells expressing EGFR del119 mutant assessed as inhibition in cell viability after 72 hrs by CCK8 assay; type: functional, cell-based; conditions: HCC827, 72 h
NCI-H1975 [16] = test: Induction of cell cycle arrest in human NCI-H1975 cells assessed as accumulation at S phase at 2.5 uM after 36 hrs by PI staining based flow cytometry analysis (reference value: 32.7 %); type: functional
NCI-H1975 [17] = test: Induction of cell cycle arrest in human NCI-H1975 cells assessed as accumulation at G0/G1 phase at 0.02 uM after 36 hrs by PI staining based flow cytometry analysis (reference value: 24.2%); type: functional
NCI-H1299 [18] = test: Induction of apoptosis in human NCI-H1299 cells assessed as increase in necrotic cells at 2.5 uM after 36 hrs by annexin-V-FITC/PI staining based flow cytometric analysis (reference value: 0.75%); type: functional
NCI-H1299 [19] = test: Induction of cell cycle arrest in human NCI-H1299 cells assessed as accumulation at G0/G1 phase at 2.5 uM after 36 hrs by PI staining based flow cytometry analysis (reference value: 70.2%); type: functional
NCI-H1975 [20] = test: Induction of cell cycle arrest in human NCI-H1975 cells assessed as accumulation at G0/G1 phase at 0.1 uM after 36 hrs by PI staining based flow cytometry analysis (reference value: 24.2%); type: functional
NCI-H1299 [21] = test: Induction of apoptosis in human NCI-H1299 cells assessed as increase in late apoptotic cells at 0.1 uM after 36 hrs by annexin-V-FITC/PI staining based flow cytometric analysis (reference value: 4.39%); type: functional
NCI-H1975 [22] = test: Induction of cell cycle arrest in human NCI-H1975 cells assessed as accumulation at S phase at 0.5 uM after 36 hrs by PI staining based flow cytometry analysis (reference value: 32.7 %); type: functional
NCI-H1975 [23] = test: Induction of apoptosis in human NCI-H1975 cells assessed as increase in late apoptotic cells at 2.5 uM after 36 hrs by annexin-V-FITC/PI staining based flow cytometric analysis (reference value: 3.85%); type: functional
NCI-H1975 [24] = test: Induction of apoptosis in human NCI-H1975 cells assessed as increase in viable cells at 0.5 uM after 36 hrs by annexin-V-FITC/PI staining based flow cytometric analysis (reference value: 94.6%); type: functional
NCI-H1975 [25] = test: Induction of cell cycle arrest in human NCI-H1975 cells assessed as accumulation at S phase at 0.1 uM after 36 hrs by PI staining based flow cytometry analysis (reference value: 32.7 %); type: functional
[26] = biological target: Epidermal growth factor receptor (Homo sapiens, UniProt P00533, C797S/T790M); test: Inhibition of EGFR T790M/C797S double mutant (unknown origin) using flurogenic substrate in presence of ATP by HTRF assay
Chain of Epidermal growth factor receptor (P00533 25-1210 T790M/C797S limits assumed): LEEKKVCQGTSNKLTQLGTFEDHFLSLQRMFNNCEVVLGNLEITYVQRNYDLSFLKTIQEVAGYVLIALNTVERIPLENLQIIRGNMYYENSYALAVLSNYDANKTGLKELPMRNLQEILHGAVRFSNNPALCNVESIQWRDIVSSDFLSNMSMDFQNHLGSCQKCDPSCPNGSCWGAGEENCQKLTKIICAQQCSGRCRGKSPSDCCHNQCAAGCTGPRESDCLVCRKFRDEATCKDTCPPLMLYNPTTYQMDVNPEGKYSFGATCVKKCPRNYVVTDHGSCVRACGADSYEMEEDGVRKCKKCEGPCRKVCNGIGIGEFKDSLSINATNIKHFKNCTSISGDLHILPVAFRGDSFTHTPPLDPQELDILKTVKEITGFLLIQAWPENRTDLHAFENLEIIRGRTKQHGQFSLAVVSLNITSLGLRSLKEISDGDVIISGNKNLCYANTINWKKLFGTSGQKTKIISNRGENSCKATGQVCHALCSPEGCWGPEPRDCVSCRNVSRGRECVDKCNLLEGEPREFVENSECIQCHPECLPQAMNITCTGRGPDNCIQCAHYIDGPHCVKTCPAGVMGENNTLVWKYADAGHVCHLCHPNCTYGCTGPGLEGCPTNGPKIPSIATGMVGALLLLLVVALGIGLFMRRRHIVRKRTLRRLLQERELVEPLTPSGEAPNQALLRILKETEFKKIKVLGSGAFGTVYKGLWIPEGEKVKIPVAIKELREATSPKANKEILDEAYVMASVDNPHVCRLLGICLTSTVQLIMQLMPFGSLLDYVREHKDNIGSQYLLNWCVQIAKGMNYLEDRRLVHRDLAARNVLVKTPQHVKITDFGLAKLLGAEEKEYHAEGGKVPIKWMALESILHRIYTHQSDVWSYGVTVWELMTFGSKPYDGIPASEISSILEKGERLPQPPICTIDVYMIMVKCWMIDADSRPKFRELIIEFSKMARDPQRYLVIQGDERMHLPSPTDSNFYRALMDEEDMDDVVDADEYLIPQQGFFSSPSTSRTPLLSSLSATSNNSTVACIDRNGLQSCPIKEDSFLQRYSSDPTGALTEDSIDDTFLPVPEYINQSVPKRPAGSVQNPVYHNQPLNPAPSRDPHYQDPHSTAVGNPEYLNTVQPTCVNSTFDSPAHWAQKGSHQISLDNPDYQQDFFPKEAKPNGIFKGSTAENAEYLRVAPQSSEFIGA

NCI-H1975 [27] = test: Induction of cell cycle arrest in human NCI-H1975 cells assessed as accumulation at G0/G1 phase at 0.5 uM after 36 hrs by PI staining based flow cytometry analysis (reference value: 24.2%); type: functional
NCI-H1299 [28] = test: Induction of apoptosis in human NCI-H1299 cells assessed as increase in late apoptotic cells at 0.02 uM after 36 hrs by annexin-V-FITC/PI staining based flow cytometric analysis (reference value: 4.39%); type: functional
NCI-H1975 [29] = test: Induction of apoptosis in human NCI-H1975 cells assessed as increase in viable cells at 2.5 uM after 36 hrs by annexin-V-FITC/PI staining based flow cytometric analysis (reference value: 94.6%); type: functional

IC50 (NCI-H1299 [4]): > 100000 nM
IC50 (A549): > 100000 nM
IC50 (HCC827): 3.63 nM
IC50 [26]: 4.01 nM
Compound: C#CCN(C)CCN(C)c1cc(OC)c(Nc2nccc(Nc3cn(C)c4ccccc34)n2)cc1NC(=O)C=C
Activity (NCI-H1975 [1]): 62.6%
Activity (NCI-H1299 [2]): 70.4%
Activity (NCI-H1975 [3]): 0.019%
Activity (NCI-H1299 [5]): 1.06%
Activity (NCI-H1299 [6]): 92.6%
Activity (NCI-H1299 [7]): 7.8%
Activity (NCI-H1975 [8]): 0.012%
Activity (NCI-H1975 [9]): 94.9%
Activity (NCI-H1975 [10]): 92.2%
Activity (NCI-H1975 [11]): 4.45%
Activity (NCI-H1299 [12]): 6%
Activity (NCI-H1299 [13]): 25.6%
Activity (NCI-H1975 [14]): 0.021%
Activity (NCI-H1975 [15]): 50.2%
Activity (NCI-H1975 [16]): 18.4%
Activity (NCI-H1975 [17]): 22.5%
Activity (NCI-H1299 [18]): 0.6%
Activity (NCI-H1299 [19]): 67.5%
Activity (NCI-H1975 [20]): 19.1%
Activity (NCI-H1299 [21]): 5.69%
Activity (NCI-H1975 [22]): 19.1%
Activity (NCI-H1975 [23]): 7.25%
Activity (NCI-H1975 [24]): 79.2%
Activity (NCI-H1975 [25]): 22.7%
Activity (NCI-H1975 [27]): 18.3%
Activity (NCI-H1299 [28]): 5.17%
Activity (NCI-H1975 [29]): 47.3%

Source: ChEMBL document CHEMBL5046228 (Eur J Med Chem, 2022)
